Assay results published in patent US20220031596A1, “ANTI-AGING AGENT AND ANTI-AGING METHOD” (priority 2018, published 2022).

Tests used:
[1] = system: prolactin concentration in the plasma; test: Evaluation of prolactin secretion promoting effect (plasma prolactin, 24-week oral ingestion); assay type: in vivo, human; conditions: for prolactin concentration in the plasma, 0 weeks (before ingestion) / prolactin concentration in the plasma, 24 weeks (after ingestion) / prolactin concentration in the plasma, Change rate (24 weeks - 0 weeks): Low Dose Group (100 mg/daily, oral), mean±SD; for prolactin concentration in the plasma, 0 weeks (before ingestion): baseline
Procedure: In order to confirm a change in the prolactin quantity before and after ingestion of the nicotinamide mononucleotide, a test was conducted on healthy males and females aged 50 to 70 years.
As a sample of Working Example 9, a capsule formulation containing the nicotinamide mononucleotide and starch (100 mg of the nicotinamide mononucleotide in 4 capsules) (manufactured by SHINKOWA PHARMACEUTICAL Co., Ltd.) was used.
(§1) Each group consisting of five healthy males and females aged 50 to 70 years in an unbiased age group ingested the above […] capsule formulation once a day by 4 capsules for 24 weeks (total 10 subjects, 100 mg/daily ingestion). In order to conduct appropriate evaluations, those who had been regularly using medical products for chronic diseases, those who had been consuming healthy foods that may affect clinical research, and those who were currently participating in other clinical researches or clinical trials or had participated in other clinical researches or clinical trials within the last three months were excluded from the subject for the evaluation. The capsule formulations were ingested at 10 am (between meals and fasting state) together with water or lukewarm water (oral administration).
Measurement of the prolactin quantity in the plasma was conducted by requesting the measurement to an external public organization according to a usual method. FIGS. 18a to 18c indicate transitions of the prolactin concentration (ng/ml) in the plasma for 24 weeks. FIG. 18a represents the transitions of the whole subjects; FIG. 18b represents the transitions of the male subjects; FIG. 18c represents the transitions of the female subjects. Further, FIGS. 19a to 19c indicate change rates (%) of the blood prolactin concentration up to 24 weeks when the nicotinamide mononucleotide was orally administered to the subjects for 24 weeks. FIG. 19a represents the change rates of the whole subjects; FIG. 19b represents the change rates of the male subjects; FIG. 19c represents the change rates of the female subjects. Further, Table 9 indicates the numerical values of the prolactin concentration (ng/ml) in the plasma before the ingestion of the nicotinamide mononucleotide (0 weeks) and after the ingestion of the nicotinamide mononucleotide (24 weeks). Note that the numerical values represent mean values±standard deviation.

[2] = system: testosterone concentration in the plasma; test: Evaluation of testosterone secretion promoting effect (plasma testosterone, 24-week oral ingestion); assay type: in vivo, human; conditions: for testosterone concentration in the plasma, 0 weeks (before ingestion) / testosterone concentration in the plasma, 24 weeks (after ingestion) / testosterone concentration in the plasma, Change rate (24 weeks - 0 weeks): High Dose Group (200 mg/daily, oral), mean±SD; for testosterone concentration in the plasma, 0 weeks (before ingestion): baseline
Procedure: In order to confirm a change in the testosterone quantity before and after ingestion of the nicotinamide mononucleotide, a test was conducted on healthy males and females aged 50 to 70 years.
As a sample of Working Example 8, a capsule formulation containing the nicotinamide mononucleotide and starch (200 mg of the nicotinamide mononucleotide in 4 capsules) (manufactured by SHINKOWA PHARMACEUTICAL Co., Ltd.) was used.
as §1, with “200” for “100”
Measurement of the testosterone quantity in the plasma was conducted by requesting the measurement to an external public organization according to a usual method. FIGS. 16a to 16c indicate transitions of the testosterone concentration (ng/ml) in the plasma for 24 weeks. FIG. 16a represents the transitions of the whole subjects; FIG. 16b represents the transitions of the male subjects; FIG. 16c represents the transitions of the female subjects. Further, FIGS. 17a to 17c indicate change rates (%) of the blood testosterone concentration up to 24 weeks when the nicotinamide mononucleotide was orally administered to the subjects for 24 weeks. FIG. 17a represents the change rates of the whole subjects; FIG. 17b represents the change rates of the male subjects; FIG. 17c represents the change rates of the female subjects. Further, Table 8 indicates the numerical values of the testosterone concentration (ng/ml) in the plasma before the ingestion of the nicotinamide mononucleotide (0 weeks) and after the ingestion of the nicotinamide mononucleotide (24 weeks). Note that the numerical values represent mean values±standard deviation.

## NC(=O)c1ccc[n+]([C@@H]2O[C@H](COP(=O)([O-])O)[C@@H](O)[C@H]2O)c1 [nicotinamide mononucleotide]
[1]; Female
  prolactin concentration in the plasma, 0 weeks (before ingestion): 8.50 ± 2.71 ng/mL
  prolactin concentration in the plasma, 24 weeks (after ingestion): 10.15 ± 3.22 ng/mL
  prolactin concentration in the plasma, Change rate (24 weeks - 0 weeks): 1.66 ± 4.32 ng/mL
[1]; Male
  prolactin concentration in the plasma, 0 weeks (before ingestion): 9.23 ± 1.92 ng/mL
  prolactin concentration in the plasma, 24 weeks (after ingestion): 9.58 ± 2.47 ng/mL
  prolactin concentration in the plasma, Change rate (24 weeks - 0 weeks): 0.35 ± 1.40 ng/mL
[1]; Whole Subjects
  prolactin concentration in the plasma, 0 weeks (before ingestion): 8.86 ± 2.25 ng/mL
  prolactin concentration in the plasma, 24 weeks (after ingestion): 9.87 ± 2.72 ng/mL
  prolactin concentration in the plasma, Change rate (24 weeks - 0 weeks): 1.00 ± 3.10 ng/mL
[1]; oral, 100 mg/daily, 24 weeks, FIGS. 18a-18c, 19a-19c
  prolactin concentrations in the plasma, effect of ingestion (in words): increased
[2]; Female
  testosterone concentration in the plasma, 0 weeks (before ingestion): 0.09 ± 0.06 ng/mL
  testosterone concentration in the plasma, 24 weeks (after ingestion): 0.10 ± 0.05 ng/mL
  testosterone concentration in the plasma, Change rate (24 weeks - 0 weeks): 0.00 ± 0.03 ng/mL
[2]; Male
  testosterone concentration in the plasma, 0 weeks (before ingestion): 5.66 ± 1.54 ng/mL
  testosterone concentration in the plasma, 24 weeks (after ingestion): 5.90 ± 1.59 ng/mL
  testosterone concentration in the plasma, Change rate (24 weeks - 0 weeks): 0.25 ± 0.92 ng/mL
[2]; Whole Subjects
  testosterone concentration in the plasma, 0 weeks (before ingestion): 2.87 ± 3.11 ng/mL
  testosterone concentration in the plasma, 24 weeks (after ingestion): 3.00 ± 3.24 ng/mL
  testosterone concentration in the plasma, Change rate (24 weeks - 0 weeks): 0.13 ± 0.63 ng/mL
[2]; oral, 200 mg/daily, 24 weeks, FIGS. 16a-16c, 17a-17c
  testosterone concentrations in the plasma, effect of ingestion (in words): increased
